Source: patent US7183324B2, “2,3,4-substituted cyclopentanones as therapeutic agents” (Allergan, Inc., priority 2004, dated 2007)
pEC50, pIC50: −log10 of the molar value.

Assays:
HEP4 = target: T1, HEP4 (Homo sapiens, UniProt P35408); assay: Radioligand binding, EP4 receptor; settings: [3H]PGE2 5 nM, HEK-293 membranes
T1 construct: expressed in transfected cells; host or cells: HEK-293
Protocol: (§1) HEK-293 cells stably expressing the human or feline FP receptor, or EP1, EP2, or EP4 receptors were washed with TME buffer, scraped from the bottom of the flasks, and homogenized for 30 sec using a Brinkman PT 10/35 polytron. TME buffer was added to achieve a final 40 ml volume in the centrifuge tubes (the composition of TME is 100 mM TRIS base, 20 mM MgCl2, […]; 10N HCl is added to achieve a pH of 7.4).
(§2) The cell homogenate was centrifuged at 19000 r.p.m. for 20 min at 4° C. using a Beckman Ti-60 rotor. The resultant pellet was resuspended in TME buffer to give a final 1 mg/ml protein concentration, as determined by Biorad assay. Radioligand binding competition assays vs. [^3H-]17-phenyl PGF2α (5 nM) were performed in a 100 μl volume for 60 min. Binding reactions were started by adding plasma membrane fraction. The reaction was terminated by the addition of 4 ml ice-cold TRIS-HCl buffer and rapid filtration through glass fiber GF/B filters using a Brandel cell harvester. The filters were washed 3 times with ice-cold buffer and oven dried for one hour. Non-specific binding was determined with 10 uM unlabeled 17-phenyl PGF2α.
(§3) [^3H-] PGE2 (5 nM; specific activity 180 Ci mmol) was used as the radioligand for EP receptors. Binding studies employing EP1, EP2, EP3, EP4 were performed in duplicate in at least three separate experiments. A 200 μl assay volume was used. Incubations were for 60 min at 25° C. and were terminated by the addition of 4 ml of ice-cold 50 mM TRIS-HCl, followed by rapid filtration through Whatman GF/B filters and three additional 4 ml washes in a cell harvester (Brandel). Non-specific binding determined with 10^−5M of unlabeled PGE2.

hEP3A/Gqi5 = target: T2, hEP3A/Gqi5 (Homo sapiens, UniProt P43115); assay: FLIPR calcium signal, hEP3A/Gqi5; assay type: cell-based; settings: HEK-293 (EBNA) cells, read-out: FUNCTIONAL EC50 HEP3A
T2 construct: expressed in transfected cells; host or cells: HEK-293 (EBNA)
T2 sequence (P43115 1-390): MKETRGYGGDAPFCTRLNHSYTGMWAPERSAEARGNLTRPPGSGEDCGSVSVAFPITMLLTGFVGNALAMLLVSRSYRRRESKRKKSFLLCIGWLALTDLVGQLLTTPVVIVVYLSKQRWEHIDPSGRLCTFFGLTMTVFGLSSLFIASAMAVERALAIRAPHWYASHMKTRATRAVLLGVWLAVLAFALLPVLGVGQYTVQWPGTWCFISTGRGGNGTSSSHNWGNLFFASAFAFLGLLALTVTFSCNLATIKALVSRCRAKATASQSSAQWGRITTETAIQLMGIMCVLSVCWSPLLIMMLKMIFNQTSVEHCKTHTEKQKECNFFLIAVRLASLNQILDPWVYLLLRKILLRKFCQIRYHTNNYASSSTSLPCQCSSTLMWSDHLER
Protocol: (§4) HEK-293 (EBNA) cells, stably expressing one type or subtype of recombinant human prostaglandin receptors (prostaglandin receptors expressed: hDP/Gqs5; hEP1; hEP2/Gqs5; hEP3A/Gqi5; hEP4/Gqs5; hFP; hIP; hTP), were cultured in 100 mm culture dishes in high-glucose DMEM medium containing 10% fetal bovine serum, 2 mM 1-glutamine, 250 μg/ml geneticin (G418) and 200 μg/ml hygromycin B as selection markers, and 100 units/ml penicillin G, 100 μg/ml streptomycin and 0.25 μg/ml amphotericin B. • (b) Calcium Signal Studies on the FLIPR™
(§5) Cells were seeded at a density of 5×10^4 cells per well in Biocoat® Poly-D-lysine-coated black-wall, clear-bottom 96-well plates (Becton-Dickinson) and allowed to attach overnight in an incubator at 37° C. Cells were then washed two times with HBSS-HEPES buffer (Hanks Balanced Salt Solution without bicarbonate and phenol red, 20 mM HEPES, pH 7.4) using a Denley Cellwash plate washer (Labsystems). After 45 minutes of dye-loading in the dark, using the calcium-sensitive dye Fluo-4 AM at a final concentration of 2 μM, plates were washed four times with HBSS-HEPES buffer to remove excess dye leaving 100 μl in each well. Plates were re-equilibrated to 37° C. for a few minutes.
(§6) Cells were excited with an Argon laser at 488 nm, and emission was measured through a 510–570 nm bandwidth emission filter (FLIPR™, Molecular Devices, Sunnyvale, Calif.). Drug solution was added in a 50 μl volume to each well to give the desired final concentration. The peak increase in fluorescence intensity was recorded for each well. On each plate, four wells each served as negative (HBSS-HEPES buffer) and positive controls (standard agonists: BW245C (hDP); PGE2 (hEP1; hEP2/Gqs5; hEP3A/Gqi5; hEP4/Gqs5); PGF2α (hFP); carbacyclin (hIP); U46619 (hTP), depending on receptor). The peak fluorescence change in each drug-containing well was then expressed relative to the controls.
(§7) Compounds were tested in a high-throughput (HTS) or concentration-response (CoRe) format. In the HTS format, forty-four compounds per plate were examined in duplicates at a concentration of 10^−5 M. To generate concentration-response curves, four compounds per plate were tested in duplicates in a concentration range between 10^−5 and 10^−11 M. The duplicate values were averaged. In either, HTS or CoRe format each compound was tested on at least 3 separate plates using cells from different passages to give an n≧3.

hEP4/Gqs5 = target: T3, hEP4/Gqs5 (Homo sapiens, UniProt P35408); assay: FLIPR calcium signal, hEP4/Gqs5; assay type: cell-based; settings: HEK-293 (EBNA) cells, read-out: FUNCTIONAL EC50 HEP4
T3 construct: expressed in transfected cells; host or cells: HEK-293 (EBNA)
T3 sequence (P35408 whole entry): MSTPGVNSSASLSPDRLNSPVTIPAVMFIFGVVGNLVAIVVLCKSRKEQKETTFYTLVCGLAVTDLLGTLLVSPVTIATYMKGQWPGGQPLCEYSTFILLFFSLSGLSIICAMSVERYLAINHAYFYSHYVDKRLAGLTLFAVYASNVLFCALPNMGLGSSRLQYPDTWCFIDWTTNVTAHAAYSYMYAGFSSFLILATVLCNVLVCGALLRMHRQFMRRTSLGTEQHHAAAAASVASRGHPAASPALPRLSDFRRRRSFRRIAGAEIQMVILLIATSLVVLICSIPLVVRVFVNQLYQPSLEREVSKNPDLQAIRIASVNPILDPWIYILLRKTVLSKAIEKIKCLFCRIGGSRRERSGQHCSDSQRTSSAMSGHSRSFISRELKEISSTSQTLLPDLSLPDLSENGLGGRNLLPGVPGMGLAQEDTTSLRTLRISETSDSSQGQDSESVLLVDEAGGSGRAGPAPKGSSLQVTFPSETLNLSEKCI
Protocol: as §4, §5, §6, §7

hTP = target: T4, hTP (Homo sapiens, UniProt P21731); assay: FLIPR calcium signal, hTP; assay type: cell-based; settings: HEK-293 (EBNA) cells, read-out: FUNCTIONAL EC50 HTP
T4 construct: expressed in transfected cells; host or cells: HEK-293 (EBNA)
T4 sequence (P21731 1-343): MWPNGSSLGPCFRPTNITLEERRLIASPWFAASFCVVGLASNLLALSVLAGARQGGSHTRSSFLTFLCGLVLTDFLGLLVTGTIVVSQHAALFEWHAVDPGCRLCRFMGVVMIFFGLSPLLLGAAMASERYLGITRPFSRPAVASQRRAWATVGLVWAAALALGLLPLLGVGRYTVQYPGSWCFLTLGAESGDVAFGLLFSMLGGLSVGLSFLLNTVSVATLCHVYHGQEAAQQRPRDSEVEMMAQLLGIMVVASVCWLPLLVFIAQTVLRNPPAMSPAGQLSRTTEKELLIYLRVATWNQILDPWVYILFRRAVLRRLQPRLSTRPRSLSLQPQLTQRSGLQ
Protocol: as §4, §5, §6, §7

HEP3D = target: T5, HEP3D (Homo sapiens, UniProt P43115); assay: Radioligand binding, EP3 receptor; settings: [3H]PGE2 5 nM
T5 sequence (P43115 1-374 isoform P43115-4): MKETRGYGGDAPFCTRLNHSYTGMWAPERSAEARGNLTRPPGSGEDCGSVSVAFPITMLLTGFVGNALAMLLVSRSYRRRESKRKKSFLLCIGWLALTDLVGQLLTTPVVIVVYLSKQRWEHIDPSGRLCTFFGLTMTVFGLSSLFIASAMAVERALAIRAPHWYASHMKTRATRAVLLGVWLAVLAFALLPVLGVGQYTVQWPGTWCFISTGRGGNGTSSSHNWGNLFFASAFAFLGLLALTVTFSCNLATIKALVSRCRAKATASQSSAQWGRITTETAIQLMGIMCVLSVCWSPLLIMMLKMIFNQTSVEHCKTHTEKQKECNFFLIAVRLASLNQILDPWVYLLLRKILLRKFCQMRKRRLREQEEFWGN
Protocol: as §1, §2, §3

T1 sequence (P35408 whole entry): as the sequence (P35408 whole entry) above

| pIC50 (HEP4) | pEC50 (hEP3A/Gqi5) | pEC50 (hEP4/Gqs5) | pEC50 (hTP) | pIC50 (HEP3D) | Compound |
| --- | --- | --- | --- | --- | --- |
| 7.02 | < 5.00 | 8.74 | < 5.00 |  | CC(O)(/C=C/[C@H]1CCC(=O)[C@@H]1SCCCSCC(=O)O)CCc1ccc2ccccc2c1 (single isomer, unassigned) [drawing 24] |
| 5.89 |  | 6.44 |  |  | O=C(O)CSCCCS[C@H]1C(=O)C[C@@H](CO)[C@@H]1/C=C/C(O)CCc1cc2ccccc2s1 (single isomer, unassigned) [drawing 31] |
| 7.00 |  | 6.33 |  |  | O=C(O)CSCCCS[C@H]1C(=O)C[C@@H](CO)[C@@H]1/C=C/C(O)CCc1cc2ccccc2s1 (single isomer, unassigned) [drawing 32] |
| 6.70 |  | 7.70 | < 5.00 |  | CC(O)(/C=C/[C@H]1CCC(=O)[C@@H]1SCCCSCC(=O)O)CCc1ccc2ccccc2c1 (single isomer, unassigned) [drawing 33] |
| 5.80 |  | 5.63 |  |  | COC(=O)CSCCCS[C@H]1C(=O)C[C@@H](CO)[C@@H]1/C=C/C(O)CCc1ccc2ccccc2c1 (single isomer, unassigned) [drawing 38] |
| 6.71 |  | 6.97 |  |  | COC(=O)CSCCCS[C@H]1C(=O)C[C@@H](CO)[C@@H]1/C=C/C(O)Cc1ccccc1 (single isomer, unassigned) [drawing 42] |
| 5.98 |  | 5.68 |  |  | COC(=O)CSCCCS[C@H]1C(=O)C[C@@H](CO)[C@@H]1/C=C/C(O)Cc1ccccc1 (single isomer, unassigned) [drawing 43] |
| 6.85 |  | 7.82 |  |  | COC(=O)CSCCCS[C@H]1C(=O)CC[C@@H]1/C=C/C(O)Cc1ccccc1 (single isomer, unassigned) [drawing 45] |
| 7.26 | < 5.00 | 7.22 |  | < 5.00 | O=C(O)CSCCCS[C@H]1C(=O)CC[C@@H]1/C=C/C(O)Cc1ccccc1 (single isomer, unassigned) [drawing 47] |
| 6.52 |  | 8.11 |  |  | COC(=O)CSCCCS[C@H]1C(=O)CC[C@@H]1/C=C/C(O)CCc1cc2ccccc2s1 (stereo partly drawn) [drawing 27, {3-[(1R,2R)-2-((E)-5-Benzo[b]thiophen-2-yl-3-hydroxy-pent-1-enyl)-5-oxo-cyclopentylsulfanyl]-propylsulfanyl}-acetic acid methyl ester] |
| 5.68 |  | 5.10 |  |  | COC(=O)CSCCCS[C@H]1C(=O)C[C@@H](CO)[C@@H]1/C=C/C(O)CCc1cc2ccccc2s1 (stereo partly drawn) [drawing 29, {3-[(1R,2S,3R)-2-((E)-5-Benzo[b]thiophen-2-yl-3-hydroxy-pent-1-enyl)-3-hydroxymethyl-5-oxo-cyclopentylsulfanyl]-propylsulfanyl}-acetic acid methyl ester] |
| 5.72 |  | < 5.00 |  |  | COC(=O)CSCCCS[C@H]1C(=O)C[C@@H](CO)[C@@H]1/C=C/C(O)CCc1cc2ccccc2s1 (stereo partly drawn) [drawing 30, {3-[(1R,2S,3R)-2-((E)-5-Benzo[b]thiophen-2-yl-3-hydroxy-pent-1-enyl)-3-hydroxymethyl-5-oxo-cyclopentylsulfanyl]-propylsulfanyl}-acetic acid methyl ester] |
| 6.52 |  | 9.30 |  |  | COC(=O)CSCCCS[C@H]1C(=O)CC[C@@H]1/C=C/C(O)CCc1ccc2ccccc2c1 (stereo partly drawn) [drawing 34, {3-[(1R,2R)-2-((E)-3-Hydroxy-5-naphthalen-2-yl-pent-1-enyl)-5-oxo-cyclopentylsulfanyl]-propylsulfanyl}-acetic acid methyl ester] |
| 6.70 |  | 9.22 |  |  | COC(=O)CSCCCS[C@H]1C(=O)CC[C@@H]1/C=C/C(O)CCc1ccc2ccccc2c1 (stereo partly drawn) [drawing 35, {3-[(1R,2R)-2-((E)-3-Hydroxy-5-naphthalen-2-yl-pent-1-enyl)-5-oxo-cyclopentylsulfanyl]-propylsulfanyl}-acetic acid methyl ester] |
| 6.30 |  | 7.34 |  |  | COC(=O)CSCCCS[C@H]1C(=O)CC[C@@H]1/C=C/C(C)(O)CCc1ccc2ccccc2c1 (stereo partly drawn) [{3-[(1R,2R)-2-((E)-3-Hydroxy-3-methyl-5-naphthalen-2-yl-pent-1-enyl)-5-oxo-cyclopentylsulfanyl]-propylsulfanyl}-acetic acid methyl ester] |
| 7.08 |  |  |  | < 5.00 | COC(=O)CSCCCS[C@H]1C(=O)CC[C@@H]1/C=C/C(O)Cc1ccc2ccccc2c1 (stereo partly drawn) [{3-[(1R,2R)-2-((E)-3-Hydroxy-4-naphthalen-2-yl-but-1-enyl)-5-oxo-cyclopentylsulfanyl]-propylsulfanyl}-acetic acid methyl ester] |

| Compound | pIC50 (HEP4) | pEC50 (hEP3A/Gqi5) | pEC50 (hEP4/Gqs5) | pEC50 (hTP) | pIC50 (HEP3D) |
| --- | --- | --- | --- | --- | --- |
| O=C(O)CSCCCS[C@H]1C(=O)C[C@@H](CO)[C@@H]1/C=C/C(O)Cc1ccccc1 (single isomer, unassigned) [drawing 50] | 6.36 |  | 6.87 |  |  |
| O=C(O)CSCCCS[C@H]1C(=O)C[C@@H](CO)[C@@H]1/C=C/C(O)CCc1ccc2ccccc2c1 (stereo partly drawn) [drawing 40, {3-[(1R,2S,3R)-3-Hydroxymethyl-2-((E)-3-hydroxy-5-naphthalen-2-yl-pent-1-enyl)-5-oxo-cyclopentylsulfanyl]-propylsulfanyl}-acetic acid] | 6.00 |  | 6.33 |  |  |
